Test results reported in the RepoRT retention time repository.

Test: RP, Waters ACQUITY UPLC HSS T3, 0.1 mL/min; A: water + 0.01% formic acid; B: acetonitrile + 0.01% formic acid; gradient (min/%B) 0/10 38/45 45/45 55/0 60/0
Settings: stereoisomer not certain

Compound | LC retention time [min]
CN1COCN(Cc2cnc(Cl)s2)C1=N[N+](=O)[O-] [Thiamethoxam] | 6.97
CCCCCC(O)C=CC1C(=O)CC(O)C1CC=CCCCC(=O)O (stereo not drawn) [Prostaglandin D2] | 27.6
CC(=O)Oc1ccccc1C(=O)O [Acetylsalicylic acid] | 8.55
O=C(O)Cc1c[nH]c2ccc(O)cc12 [Hydroxyindoleacetic acid] | 5.71
CCNc1nc(NC(C)C)nc(SC)n1 [Ametryn] | 20.1
CC12CCC3c4ccc(O)cc4CCC3C1CCC2=O (stereo not drawn) [Estrone] | 31.6
CCCC1COC(Cn2cncn2)(c2ccc(Cl)cc2Cl)O1 (stereo not drawn) [Propiconazole] | 41.7
CCCCCC=CCC(O)C=CC=CC=CC(O)CCCC(=O)O (stereo not drawn) [Leukotriene B4] | 39.5
O=C(O)Cc1ccccc1Nc1c(Cl)cccc1Cl [Diclofenac] | 39.6
CCCCCC=CCC=CCC=CCC=CCCCC(=O)O [Arachidonic Acid] | 47
COC(=O)N(OC)c1ccccc1COc1ccn(-c2ccc(Cl)cc2)n1 [Pyraclostrobine] | 43.5
CON(C)C(=O)Nc1ccc(Cl)c(Cl)c1 [Linuron] | 31.7
COCC(=O)N(c1c(C)cccc1C)C(C)C(=O)OC (stereo not drawn) [Metalaxyl] | 24.3
COc1ccc2c3c1OC1C(O)C=CC4C(C2)N(C)CCC341 (stereo not drawn) [Codeine] | 5.12
O=C(C=CC=Cc1ccc2c(c1)OCO2)N1CCCCC1 [Piperine] | 36.4
COc1nc(NC(=O)NS(=O)(=O)c2ccccc2C(F)(F)F)nc(C(F)(F)F)n1 [Tritosulfuron] | 35.9
CC(C)Cc1ccc(C(C)C(=O)O)cc1 (stereo not drawn) [Ibuprofen] | 39.9
CCC(C)(CC)c1cc(NC(=O)c2c(OC)cccc2OC)on1 [Isoxaben] | 39
CCNc1nc(NC(C)(C)C)[nH]c(=O)n1 [Tertbutylazine-2-hydroxy] | 8.38
O=C(O)c1ccccc1O [Salicylic acid] | 8.4
Nc1ccccc1 [Aniline] | 3.1
CCOP(=S)(OCC)Oc1cc(C)nc(C(C)C)n1 [Diazinon] | 43.4
CN1C(=O)CCC1c1ccc[n+](C2OC(C(=O)[O-])C(O)C(O)C2O)c1 (stereo not drawn) [Cotinine glucuronide] | 1.4
Nc1ccc(O)cc1 [4-Aminophenol] | 1.3

Compound | LC retention time [min]
CC12CCC(=O)C=C1CCC1C2CCC2(C)C(O)CCC12 (stereo not drawn) [Testosterone] | 28.9
CC(C(=O)O)c1cccc(C(=O)c2ccccc2)c1 (stereo not drawn) [Ketoprofen] | 28.3
CC12CCC(=O)C=C1CCC1C2C(=O)CC2(C)C1CCC2(O)C(=O)CO (stereo not drawn) [Cortisone] | 16.1
O=C(Nc1ccccc1)N(Cc1ccc(Cl)cc1)C1CCCC1 [Pencycuron] | 43.7
CC(Oc1ccc(Cl)cc1Cl)C(=O)O (stereo not drawn) [Dichlorprop] | 10
CCOCN(C(=O)CCl)c1c(C)cccc1CC [Acetochlor] | 40.6
CSc1nc(NC2CC2)nc(NC(C)(C)C)n1 [Irgarol] | 29.9
CCCN(CCC)c1c([N+](=O)[O-])cc(S(N)(=O)=O)cc1[N+](=O)[O-] [Oryzalin] | 41.2
COC(=O)c1ccc(O)cc1 [Methylparaben] | 10
CCS(=O)(=O)c1nnc(N(C)C(=O)NC)s1 [Ethidimuron] | 9.06
CC(C)C1(C)N=C(c2nc3ccccc3cc2C(=O)O)NC1=O (stereo not drawn) [Imazaquin] | 16.3
CCNC(=O)C(C)OC(=O)Nc1ccccc1 (stereo not drawn) [Carbetamide] | 13.5
CSC1=NC(C)(c2ccccc2)C(=O)N1Nc1ccccc1 (stereo not drawn) [Fenamidone] | 35.8
CN1CCCC1c1ccc[n+](C2OC(C(=O)[O-])C(O)C(O)C2O)c1 (stereo not drawn) [Nicotine Glucuronide] | 1.3
Nc1cnn(-c2ccccc2)c(=O)c1Cl [Chloridazon] | 9.25
N[C@@H](Cc1cc(I)c(Oc2cc(I)c(O)c(I)c2)c(I)c1)C(=O)O [L-thyroxine] | 25.6
CC(C)(C)C(O)(CCc1ccc(Cl)cc1)Cn1cncn1 (stereo not drawn) [Tebuconazole] | 39.5
Fc1ccc(C2CCNCC2COc2ccc3c(c2)OCO3)cc1 (stereo not drawn) [Paroxetine] | 18.3
CC(=O)C1CCC2C3CCC4=CC(=O)CCC4(C)C3CCC12C (stereo not drawn) [Progesterone] | 42.1
CCCCCC=CCC=CC=CC=CC(SCC(N)C(=O)NCC(=O)O)C(O)CCCC(=O)O (stereo not drawn) [Leukotriene D4] | 33
COc1ccc(C(=O)c2ccccc2)c(O)c1 [Oxybenzone] | 40.6
CC(=O)C1CCC2C3CCC4CC(O)CCC4(C)C3CCC12C (stereo not drawn) [Allopregnanolone] | 43.9
O=[N+]([O-])/N=C1\NCCN1Cc1ccc(Cl)nc1 [Imidacloprid] | 8.57
N#CN=C1SCCN1Cc1ccc(Cl)nc1 [Thiacloprid] | 12.2

Compound | LC retention time [min]
Cn1c(=O)c2c(ncn2C)n(C)c1=O [Caffeine] | 5.71
CS(=O)(=O)c1ccc(C(=O)C2C(=O)CCCC2=O)c([N+](=O)[O-])c1 [Mesotrione] | 16.5
COC(=O)c1ccccc1S(=O)(=O)NC(=O)Nc1nc(C)nc(OC)n1 [Metsulfuron-methyl] | 19.4
CCOP(=S)(OCC)Oc1nc(Cl)c(Cl)cc1Cl [Chlorpyrifos] | 45.5
CC(C)N(C(=O)CCl)c1ccccc1 [Propachlore] | 25.8
NC(=O)N1c2ccccc2C=Cc2ccccc21 [Carbamazepine] | 18
Oc1cc(Cl)ccc1Oc1ccc(Cl)cc1Cl [Triclosan] | 43.8
Cc1nnc(-c2ccccc2)c(=O)n1N [Metamitron] | 8.55
CC12CCC3c4cc(O)c(O)cc4CCC3C1CCC2O (stereo not drawn) [Estradiol-2-hydroxy] | 21.5
COc1ccc(C(CN(C)C)C2(O)CCCCC2)cc1 (stereo not drawn) [Venlafaxine] | 9.84
Cn1cc(C(=O)Nc2ccc(F)cc2-c2ccc(Cl)c(Cl)c2)c(C(F)F)n1 [Bixafen] | 42.2
CC1=NNC(=O)N(N=Cc2cccnc2)C1 [Pymetrozine] | 26.7
COC=C(C(=O)OC)c1ccccc1Oc1cc(Oc2ccccc2C#N)ncn1 [Azoxystrobin] | 38
CCC(C)n1c(=O)[nH]c(C)c(Br)c1=O (stereo not drawn) [Bromacil] | 14.3
CCCOc1nn(C(=O)NS(=O)(=O)c2ccccc2C(=O)OC)c(=O)n1C [Propoxycarbazone] | 22.1
O=C1Nc2ccc(Cl)cc2C(c2ccccc2)=NC1O (stereo not drawn) [Oxazepam] | 20.6
COCC(C)N(C(=O)CCl)c1c(C)csc1C (stereo not drawn) [Dimethenamid] | 32.5
CN1C(=O)CCC1c1cccnc1 (stereo not drawn) [Cotinine] | 4.31
CC12CCC(=O)C=C1CCC1C2C(O)CC2(C=O)C(C(=O)CO)CCC12 (stereo not drawn) [Aldosterone] | 13.8
CCCN(CCOc1c(Cl)cc(Cl)cc1Cl)C(=O)n1ccnc1 [Prochloraz] | 38.7
CC(C)(C)C(=O)OCOC(=O)C1N2C(=O)C(N=CN3CCCCCC3)C2SC1(C)C (stereo not drawn) [Pivmecillinam] | 26.4
CSc1nnc(C(C)(C)C)c(=O)n1N [Metribuzine] | 15.6
CCNc1nc(N)nc(Cl)n1 [Atrazine-desisopropyl] | 6.98
COCc1cnc(C2=NC(C)(C(C)C)C(=O)N2)c(C(=O)O)c1 (stereo not drawn) [Imazamox] | 9.34

Compound | LC retention time [min]
CN1CCCC1c1cccnc1 (stereo not drawn) [Nicotine] | 3.37
CNC(=O)N(C)c1nc2ccccc2s1 [Methabenzthiazuron] | 19.4
COc1cc(OC)nc(NC(=O)NS(=O)(=O)c2ncccc2C(=O)N(C)C)n1 [Nicosulfuron] | 15.2
CC(=O)OCC[N+](C)(C)C [Acetylcholine] | 1.39
CCc1cccc(C)c1N(C(=O)CCl)C(C)COC (stereo not drawn) [Metolachlor] | 26.7
O=C(O)COc1nc(Cl)c(Cl)cc1Cl [Triclopyr] | 25
CC(C)N(C(=O)COc1nnc(C(F)(F)F)s1)c1ccc(F)cc1 [Flufenacet] | 41.1
CCOP(=O)(SC(C)CC)N1CCSC1=O (stereo not drawn) [Fosthiazate] | 22.2
CNC1=C(c2cccc(C(F)(F)F)c2)C(=O)C(c2ccccc2)O1 (stereo not drawn) [Flurtamone] | 34.1
N#CCNC(=O)c1cnccc1C(F)(F)F [Flonicamid] | 7.52
CC12CCC3C(CCC4=CC(=O)CCC43C)C1CCC2=O (stereo not drawn) [Androstenedione] | 31.5
CCC(Oc1ccc(F)c(C(F)(F)F)c1)C(=O)NCc1ccccc1 (stereo not drawn) [Beflubutamid] | 42.7
CC12CCC3C(CC=C4CC(O)CCC43C)C1CCC2=O (stereo not drawn) [Dehydroepiandrosterone] | 31.7
CNC1CCC(c2ccc(Cl)c(Cl)c2)c2ccccc21 (stereo not drawn) [Sertraline] | 24.3
NC(Cc1c[nH]c2ccccc12)C(=O)O (stereo not drawn) [Tryptophan] | 5.4
CCNc1nc(Cl)nc(NCC)n1 [Simazine] | 14.5
CCOC(=O)CC(SP(=S)(OC)OC)C(=O)OCC (stereo not drawn) [Malathion] | 40.8
CC12CCC3c4ccc(O)cc4CCC3C1CC(O)C2O (stereo not drawn) [Estriol] | 11.7
CC(C)c1ccc(NC(=O)N(C)C)cc1 [Isoproturon] | 23.4
COc1nc(C)nc(NC(=O)NS(=O)(=O)c2ccccc2CCC(F)(F)F)n1 [Prosulfuron] | 34.5
CNC(=O)Nc1ccc(Cl)c(Cl)c1 [1-(3,4-Dichlorophenyl)-3-methylurea] | 20.5
